Where two headings read alike, the source gives them in different places.
Key:
S. aureus 5328 [1] = experiment: MIC of compounds, S. aureus 5328; type: cell-based; conditions: Staphylococcus aureus; 5328 (MRSA)
Method: (§1) Compounds 14–16 were tested further for their adjuvant-like effect with a set of ten additional S. aureus isolates. Firstly, MIC values of the molecules were evaluated in two clinical MSSA isolates (MM-O058, MM-N072), seven MRSA (USA300 LAC, 5328, LG-N017, MM-O021, R45-CC45, R46-CC22, COL) and one VISA strain (Mu50). Detailed results are presented in the Supplementary section (Table S3).
(§2) Determination of MIC values, i.e., intrinsic antibacterial activity, of products and antibiotics (oxacillin, ampicillin, vancomycin, ciprofloxacin, and erythromycin) in the presence and absence of compounds tested was conducted by the use of a standard 2-fold microdilution method in cation-adjusted Mueller Hinton broth following the Clinical and Laboratory Standards Institute (CLSI) guidelines. The MIC values were detected using an Infinite M200 pro Tecan microplate reader (Tecan® France, SA-Lyon, France). MIC determinations were conducted in 96-well microtiter plates and repeated 3–4 times.
(§3) Initially, MICs of a series of imidazolone derivatives were assessed against susceptible (reference) and MDR strains of staphylococci. Next, MIC values of the aforementioned antibiotics were determined in the absence and presence of imidazolone derivatives to assess the chemosensitizing effect of these compounds. […] 5-arylideneimidazolones and 5-arylidenethiazolones, which precipitated after addition to bacterial suspension in MH II medium, were tested at the highest concentrations at which precipitation was not observed. […] Antibacterial activity of compounds and antibiotics ampicillin, vancomycin, ciprofloxacin, and erythromycin was recorded as the lowest concentration of molecules able to inhibit bacterial growth after 18 h incubation at 37 °C. […] The results are presented as activity gain (A) parameter which was calculated as ratio of MIC of a certain antibiotic (MICAnt) to its MICAnt+Comp, observed in combination with a tested compound (7, 12–16, 19, or 20; Equation (1)). […]

S. aureus USA300 LAC [2] = experiment: MIC reduction assay (antibiotic adjuvant), S. aureus USA300 LAC; type: cell-based, Staphylococcus aureus; parameters: key: A = MIC of antibiotic alone / MIC with compound
Excerpt: (§4) The adjuvant properties of compounds 14–16 in S. aureus clinical isolates were next tested in combination with oxacillin and the penicillinase-susceptible β-lactam antibiotic, ampicillin. The second β-lactam antibiotic was chosen based on its vulnerability to enzymatic hydrolysis, another important resistance mechanism in S. aureus against penicillin. Therefore, the results of the MIC reduction assay obtained on the activity of arylideneimidazolones combined with oxacillin and ampicillin, respectively, might provide further insights into the possible mechanism of action of the compounds. Complete results are presented in Supplementary (Tables S4 and S5), while condensed in Figure 6, in the case of desired activity noted. […] One possible explanation for the lack of adjuvant activity of compounds in some of the strains selected for this study might be that these strains express PBP2a only when induced by the antibiotic, while others, for which potentiating activity of compounds was observed, produce this protein in high levels straight away.
as §2
(§5) Initially, MICs of a series of imidazolone derivatives were assessed against susceptible (reference) and MDR strains of staphylococci. Next, MIC values of the aforementioned antibiotics were determined in the absence and presence of imidazolone derivatives to assess the chemosensitizing effect of these compounds. […] 5-arylideneimidazolones and 5-arylidenethiazolones, which precipitated after addition to bacterial suspension in MH II medium, were tested at the highest concentrations at which precipitation was not observed. […] Antibacterial activity of compounds and antibiotics ampicillin, vancomycin, ciprofloxacin, and erythromycin was recorded as the lowest concentration of molecules able to inhibit bacterial growth after 18 h incubation at 37 °C. The incubation of bacterial strains exposed to oxacillin paired with compounds tested was conducted at 35 °C and extended to 24 h due to frequent occurrence of heterogeneity among MRSA strains. The results are presented as activity gain (A) parameter which was calculated as ratio of MIC of a certain antibiotic (MICAnt) to its MICAnt+Comp, observed in combination with a tested compound (7, 12–16, 19, or 20; Equation (1)). (1) A=(MICAnt/MICAnt+Comp)

S. aureus Mu50 = experiment: MIC reduction assay (antibiotic adjuvant), S. aureus Mu50; type: cell-based, Staphylococcus aureus; parameters: key: A = MIC of antibiotic alone / MIC with compound;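 note: compound at no more than one quarter of its own MIC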
Excerpt: as §4, §2, §5

K. aerogenes Ea-289 = experiment: MIC reduction assay (antibiotic adjuvant), K. aerogenes Ea-289; type: cell-based, Klebsiella aerogenes;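 note: compound at no more than one quarter of its own MIC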
Method: At first, MIC values of compounds were determined (Table S15, Supplementary). Next, their abilities to reduce MICs of the AcrAB-TolC substrates doxycycline (a tetracycline-class antibiotic) and erythromycin were studied (Table S16, Supplementary).
(§6) A subset of compounds, namely 7, 12–16, 19, 20, was also examined for the potential to increase the effectiveness of the antibiotics chloramphenicol, erythromycin, doxycycline, and the fluoroquinolone antibiotic norfloxacin, which all are substrates for AcrAB-TolC in K. aerogenes. In addition to strain Ea-289, the adjuvant-like effect of the compounds was investigated in strain CM-64, which also overexpresses the AcrAB-TolC efflux pump, although it has no changes in porin content, and in the Ea-289 derivatives, i.e., Ea-294 and Ea-308, which are devoid of AcrAB (Table S17, Supplementary).
as §5
(§7) MIC values of 5-arylideneimidazolone derivatives were determined following CLSI recommendations as in the methods described for S. aureus (Section 3.3.1).

S. aureus MM-O058 = experiment: MIC of compounds, S. aureus MM-O058; type: cell-based; conditions: Staphylococcus aureus; MM-O058 (MSSA)
Method: as §1, §2, §3

S. aureus USA300 LAC [3] = experiment: MIC of compounds, S. aureus USA300 LAC; type: cell-based; conditions: Staphylococcus aureus
Method: as §1, §2, §3

S. aureus MM-N072 [4] = experiment: MIC of compounds, S. aureus MM-N072; type: cell-based; conditions: Staphylococcus aureus; MM-N072 (MSSA)
Method: as §1, §2, §3

S. aureus 5328 [5] = experiment: MIC reduction assay (antibiotic adjuvant), S. aureus 5328; type: cell-based, Staphylococcus aureus
Excerpt: as §4, §2, §5

[6] = system: K. aerogenes CM-64 (overexpression of AcrAB-TolC); experiment: MIC of compounds, K. aerogenes CM-64; type: cell-based; conditions: Klebsiella aerogenes, read-out: Minimal Inhibitory Concentration (MIC)
Excerpt: as §6, §2, §7

S. aureus MM-O021 [7] = experiment: MIC of compounds, S. aureus MM-O021; type: cell-based; conditions: Staphylococcus aureus; MM-O021 (MRSA)
Method: as §1, §2, §3

S. aureus MM-O021 [8] = experiment: MIC reduction assay (antibiotic adjuvant), S. aureus MM-O021; type: cell-based, Staphylococcus aureus
Excerpt: as §4, §2, §5

[9] = system: K. aerogenes Ea-294, Ea-308 (devoid of AcrAB); experiment: MIC of compounds, K. aerogenes Ea-294, Ea-308; type: cell-based; conditions: Klebsiella aerogenes, read-out: Minimal Inhibitory Concentration (MIC)
Excerpt: as §6, §2, §7

S. aureus LG-N017 = experiment: MIC of compounds, S. aureus LG-N017; type: cell-based; conditions: Staphylococcus aureus; LG-N017 (MRSA)
Method: as §1, §2, §3

S. aureus MM-N072 [10] = experiment: MIC reduction assay (antibiotic adjuvant), S. aureus MM-N072; type: cell-based, Staphylococcus aureus
Excerpt: as §4, §2, §5

S. aureus R45-CC45 = experiment: MIC reduction assay (antibiotic adjuvant), S. aureus R45-CC45; type: cell-based, Staphylococcus aureus; conditions: ampicillin; for A (activity gain): range over repetitions
Excerpt: as §4, §2, §3

[11] = system: K. aerogenes Ea-294, Ea-308 (devoid of AcrAB); experiment: MIC of compounds, K. aerogenes Ea-294, Ea-308; type: cell-based, Klebsiella aerogenes; conditions: ratio of compound MICs
[12] = doxycycline, chloramphenicol, norfloxacin, erythromycin
[13] = USA300 LAC (MRSA), read-out: MIC value of compounds
[14] = ampicillin, range over repetitions

NC1=N/C(=C\c2ccc(-c3ccccc3)cc2)C(=O)N1CCN1CCOCC1 [Compound 14]
MIC (S. aureus 5328 [1]): ≥ 500 µM
A (activity gain) (S. aureus USA300 LAC [2]; ampicillin): 1
A (activity gain) (S. aureus USA300 LAC [2]; ciprofloxacin): 1
A (activity gain) (S. aureus USA300 LAC [2]; erythromycin): 1
A (activity gain) (S. aureus Mu50; ampicillin): 1
A (activity gain) (S. aureus Mu50; ciprofloxacin): 1
A (activity gain) (S. aureus Mu50; erythromycin): 1
A (activity gain) (S. aureus Mu50; vancomycin): 1
A (activity gain) (K. aerogenes Ea-289; doxycycline): 1
A (activity gain) (K. aerogenes Ea-289; [12]): 1
A (activity gain) (K. aerogenes Ea-289; erythromycin): 1
MIC (S. aureus MM-O058): ≥ 1000 µM
MIC (S. aureus USA300 LAC [3]; [13]): ≥ 500 µM
MIC (S. aureus MM-N072 [4]): ≥ 500 µM
A (activity gain) (S. aureus 5328 [5]; ampicillin): 2
A (activity gain) (S. aureus 5328 [5]; erythromycin, S. aureus 53284): 1
MIC [6]: > 2000 µM
MIC (S. aureus MM-O021 [7]): ≥ 500 µM
A (activity gain) (S. aureus MM-O021 [8]; [14]): 1
A (activity gain) (S. aureus MM-O021 [8]; erythromycin): 1
MIC [9]: 2000 µM
MIC (S. aureus LG-N017): ≥ 500 µM
A (activity gain) (S. aureus MM-N072 [10]; ampicillin): 1
A (activity gain) (S. aureus MM-N072 [10]; erythromycin): 1
A (activity gain) (S. aureus R45-CC45): 2-4

NC1=N/C(=C\c2ccc(-c3ccccc3)cc2)C(=O)N1CCCN1CCOCC1 [Compound 15]
MIC (S. aureus 5328 [1]): 250 µM
A (activity gain) (S. aureus USA300 LAC [2]; ampicillin): 2
A (activity gain) (S. aureus USA300 LAC [2]; ciprofloxacin): 1
A (activity gain) (S. aureus USA300 LAC [2]; erythromycin): 1
A (activity gain) (S. aureus Mu50; ampicillin): 2
A (activity gain) (S. aureus Mu50; ciprofloxacin): 1
A (activity gain) (S. aureus Mu50; erythromycin): 1
A (activity gain) (S. aureus Mu50; vancomycin): 1
A (activity gain) (K. aerogenes Ea-289; doxycycline): 1
A (activity gain) (K. aerogenes Ea-289; [12]): 1
A (activity gain) (K. aerogenes Ea-289; erythromycin): 1
MIC (S. aureus MM-O058): 250 µM
MIC (S. aureus USA300 LAC [3]; MRSA / USA300, read-out: MIC value of compounds): 125 µM
MIC (S. aureus MM-N072 [4]): 250 µM
A (activity gain) (S. aureus 5328 [5]; ampicillin): 2
A (activity gain) (S. aureus 5328 [5]; erythromycin, S. aureus 53284): 1
more effective in strains Ea-294 and Ea-298 when compared to the parental strain Ea-289 [11]: ≥ 4 fold
MIC [6]: > 2000 µM
MIC (S. aureus MM-O021 [7]): 250 to 500 µM
A (AMP), gain of activity, arithmetic mean (S. aureus MM-O021 [8]; ampicillin, arithmetic mean of 3-4 repetitions): 10.7
A (activity gain) (S. aureus MM-O021 [8]; [14]): 8-16
A (activity gain) (S. aureus MM-O021 [8]; erythromycin): 1
MIC [9]: 125 µM
MIC (S. aureus LG-N017): 250 µM
A (activity gain) (S. aureus MM-N072 [10]; ampicillin): 1
A (activity gain) (S. aureus MM-N072 [10]; erythromycin): 1
A (AMP), gain of activity, arithmetic mean (S. aureus R45-CC45; arithmetic mean of 3-4 repetitions): 6
A (activity gain) (S. aureus R45-CC45): 4-8

NC1=N/C(=C\c2cccc(Oc3ccccc3)c2)C(=O)N1CCCN1CCOCC1 [Compound 16]
MIC (S. aureus 5328 [1]): 250 µM
A (activity gain) (S. aureus USA300 LAC [2]; ampicillin): 1
A (activity gain) (S. aureus USA300 LAC [2]; ciprofloxacin): 1
A (activity gain) (S. aureus USA300 LAC [2]; erythromycin): 1
A (activity gain) (S. aureus Mu50; ampicillin): 2
A (activity gain) (S. aureus Mu50; ciprofloxacin): 1
A (activity gain) (S. aureus Mu50; erythromycin): 1
A (activity gain) (S. aureus Mu50; vancomycin): 1
MIC (S. aureus MM-O058): 250 µM
MIC (S. aureus USA300 LAC [3]; [13]): 250 µM
MIC (S. aureus MM-N072 [4]): 250 µM
A (activity gain) (S. aureus 5328 [5]; ampicillin): 1
A (activity gain) (S. aureus 5328 [5]; erythromycin, S. aureus 53284): 1
more effective in strains Ea-294 and Ea-298 when compared to the parental strain Ea-289 [11]: ≥ 4 fold
MIC [6]: > 2000 µM
MIC (S. aureus MM-O021 [7]): 250 µM
A (activity gain) (S. aureus MM-O021 [8]; [14]): 1
A (activity gain) (S. aureus MM-O021 [8]; erythromycin): 1
MIC [9]: 500 µM
MIC (S. aureus LG-N017): 250 µM
A (activity gain) (S. aureus MM-N072 [10]; ampicillin): 1
A (activity gain) (S. aureus MM-N072 [10]; erythromycin): 1
A (activity gain) (S. aureus R45-CC45): 1

NC1=N/C(=C\c2ccc3c(c2)Cc2ccccc2-3)C(=O)N1CCCN1CCOCC1 [Compound 19]
A (activity gain) (K. aerogenes Ea-289; doxycycline): 1
A (activity gain) (K. aerogenes Ea-289; [12]): 1
A (activity gain) (K. aerogenes Ea-289; erythromycin): 1
more effective in strains Ea-294 and Ea-298 when compared to the parental strain Ea-289 [11]: ≥ 4 fold
MIC [6]: > 2000 µM
MIC [9]: 250 µM

Source: article PMC7922564, “Molecular Insights into an Antibiotic Enhancer Action of New Morpholine-Containing 5-Arylideneimidazolones in the Fight against MDR Bacteria” (International Journal of Molecular Sciences, 2021)
